# Laboratory results as given in patent US10413583B2, “Synthetic substrates for enzymes that catalyze reactions of modified cysteines and related methods” (The University of Chicago, priority 2016, dated 2019).
# Entries after “also recorded” stand apart in the source; their conditions may differ.
# Legend:
# HeLa cells = assay: Epifluorescent imaging of DPP-5 with PalmB in HeLa cells; assay type: cell-based, human
# Procedure: 250,000 HEK293T cells/well, 120,000 HeLa cells/well, or 100,000 HepG2 cells/well were plated in 700 μL DMEM glutamax (10% FBS+1% P/S) into 4-well chambered imaging dish (D35C4-20-1.5-N, Cellvis, Mountain View, Calif., United States of America), which were precoated with 5 μg Poly-D-lysine (30-70 KDa, Alfa Aesar, Haverhill, Mass., United States of America) for 2 h. After 20-24 h, the media was replaced by 1 μM Hoechst 33342 and DMSO/5 μM PalmB in 400 μL DMEM glutamax. After 30 min of incubation at 37° C., the cells were washed with 400 μL of Live Cell Imaging Solution and replaced by 1 μM DPP-5 with DMSO or 5 μM of PalmB in Live Cell Imaging Solution. […] For data analysis, the average fluorescence intensity per image in each experimental condition was obtained by selecting ROI in Brightfield and applying that to the corresponding DPP-5 image, average background fluorescence intensity was subtracted and data was normalized to the average fluorescence intensity of the DMSO control. […]
# [1] = Water solubility of probes (stated in words); assay type: physicochemical
# A431 cells = assay: DPP-3 in A431 cells, starvation and EGF stimulation (flow cytometry, microscopy); assay type: cell-based, human; conditions: A431, starved and non-starved, 1 μM inhibitor, 5 μM DPP-3
# Procedure: Cells were plated on a 10 cm dish with 10 mL of DMEM/High Glucose (10% FBS, 1% P/S, L-Glutamine, Sodium pyruvate) 36-48 hours prior to the day of experiment and maintained at 37° C., 5% CO2 so as to obtain 80-90% confluency. Cells were washed with DPBS and trypsinized with 1 mL 0.05% Trypsin. 5 mL of DMEM/High Glucose (10% FBS, L-Glutamine, Sodium pyruvate) was added and cells were spun down at 1200 rpm for 3 min. Media was discarded and cells were resuspended in 5 mL of Live Cell Imaging Solution and again spun down at 1200 rpm for 3 min. The cells pellets obtained were resuspended in 3-5 mL of Live Cell Imaging Solution and divided into 500 μL aliquots. The aliquots were treated with either 0.2% DMSO carrier or 1 μM of PalmB/ML348 or 1 μM/5 μM of ML349 inhibitor. After 30 min of incubation at room temperature, 1 μL of 2.5 mM DPP-3 in DMSO was added to each aliquot for a final concentration of 5 μM, and the solutions were mixed. After 5 min incubation at room temperature, fluorescence signal in FITC channel was measured for 10000 cells (5000 for HeLa experiments) on a LSR-Fortessa 4-15 HTS (BD digital instrument, 488 nm laser with 530/30 nm filter for FITC; BD, Franklin Lakes, N.J., United States of America). For analyzing DPP2 in HEK293T cells, the aliquots were treated with either 0.2% DMSO carrier or 2 μM of PalmB, 5 or 20 μM of ML348/ML349 and then analyzed by the protocol as mentioned above. Data was analyzed by FlowJo software version 10.0.8. For comparison of A431 starved versus non-starved, parallel 10 cm dishes of A431 cells were plated in 10 mL of DMEM (high glucose, 10% FBS, 1% P/S), and grown for 36 h. The growth media was removed, and replaced by 10 mL of either DMEM (High glucose) with 10% FBS to maintain “growth” conditions, or DMEM (High glucose) without FBS respectively for “starvation” conditions, and incubated for 14 h. After trypsinization, both plates were treated with 5 mL of DMEM (high glucose) for spinning the cells down, and further processing and analysis were performed as described above by flow cytometry.
# Parallel 35 mm glass bottom dishes (D35-10-1.5-N; Cellvis, Mountain View, Calif., United States of America) of A431 cells (450,000) were plated in 2 mL of DMEM glutamax (high glucose, 10% FBS, 1% P/S), and grown for 36 h. The growth media was removed, and replaced by 1.5 mL of either DMEM (High glucose) with 10% FBS to maintain “growth” conditions, or DMEM (High glucose) without FBS respectively for “starvation” conditions, and incubated for 24 h. […] For data analysis, the average fluorescence intensity per image in each experimental condition was obtained by selecting ROIs in the brightfield image. For display, the data were normalized to the average fluorescence intensity of the control conditions. […]
compound,measurement,setting,value
CCCCCCCCCCCCCCCC(=O)SC[C@@H](C(=O)NC)N(C)C(=O)Oc1ccc2c(c1)Oc1cc(N3CCN(C(=O)CCC(=O)O)CC3)ccc1C21OC(=O)c2ccccc21 (stereo partly drawn) [DPP-5],probe fluorescent signal in cells,HeLa cells; 1 μM probe for 20 minutes,robust intracellular fluorescent signal
same,water solubility,[1],relatively higher water solubility
"CCCCCCCCCC[C@@H]1C(=O)O[C@H]1CCc1ccc(OC)c(OC)c1 [PalmB, palmostatin B]",turn-on response of DPP-5 blocked,"HeLa cells; 5 μM PalmB pretreatment, 1 μM DPP-5",more than 95%
same,effect of inhibitor on depalmitoylation signal measured by DPP-3,A431 cells,knocked down; also recorded: knocks down the depalmitoylation signal
O=C(CN1CCN(C(=O)c2ccco2)CC1)Nc1cc(C(F)(F)F)ccc1Cl [ML348],effect of inhibitor on depalmitoylation signal measured by DPP-3,A431 cells,knocks down the depalmitoylation signal
same,effect of inhibitor on depalmitoylation signal measured by DPP-3,A431 cells; listed as M348,knocked down
